This is an account of results in US20070060605A1, “Compositions and methods for inhibiting platelet activation and thrombosis” (priority 2001, published 2007).

For assay [1], the system named is platelet accumulation into thrombus. The format is in vivo. Particulars: bolus 6 mg/kg/5 min then continuous infusion 3 mg/kg/90 min; P<0.01. The text has this:
A preferred animal model involves intravital microscopy of laser-induced thrombi. The method is described by Rosen et al., 2001, Am J Pathol 158, 1613-1622, which is incorporated herein by reference. Minor variations of that method were employed as described below.
Experimental mice are pre-anesthetized and surgically prepared. A tracheal tube is placed to facilitate breathing and the jugular vein is canulated to allow for maintenance of anesthetic and introduction of compound. The cremaster muscle is then exteriorized. The muscle is affixed over a glass slide, allowing illumination from below. A steady drip of a sodium-bicarbonate buffered salt solution is maintained throughout the experiment to keep the exposed muscle moist. Blood flow in the muscle is visualized using a 40× water immersion lens and epi-illuminated with an appropriately filtered light source. Alexa 488-labeled anti-mouse CD41 antibody is injected through the jugular canulus to label platelets in vivo.
Thrombosis is initiated by damaging the vessel wall (of a 30 μm vessel) with a laser pulse from a MicroPoint LASER attached to the microscope. A LASER pulse is delivered, causing damage in an area smaller than 1 μm. The recruitment of platelets to the thrombus is then monitored by the accumulation of (activated) Alexa 488-labeled platelets at the ablation site using fluorescence microscopy, and the process is recorded digitally. The method thus permits in vivo analysis of platelet activation as measured by platelet aggregation and thrombosis.
The degree of embolization in an untreated mouse can be quantified using software for image analysis, e.g., BioQuant True Color Windows (Biometrics, Nashville, Tenn.), as described in Rosen et al., 2001, supra. The software package permits the determination of the “integrated optical density” or IOD of the thrombus.
Using quantitative intravital fluorescence videomicroscopy with high temporal resolution (111 images/second), the effect of PDE3 inhibition on the platelet recruitment into thrombi was directly observed over time. Platelets were fluorescently labeled by infusing rat-anti-mouse CD41 and Alexa 488-anti-rat IgG through a cannulated jugular vein. The cremaster microvasculature was exposed and mapped and suitable arteriole segments were selected for laser-induced injury. A series of control injuries were generated prior to infusion of the inhibitory compound. The power and the number of laser pulses required to generate each thrombus was recorded. Platelet accumulation to the thrombi following laser ablation was recorded using digital videomicroscopy. The thrombus total fluorescence in each frame of the videos was analyzed using Slidebook software for digital videomicroscopy. The pyridazinone compound was then infused. Following a 15 minute incubation, a series of experimental injuries were generated 250 μm proximal, with relationship to blood flow, of the first injury and the resultant thrombi were recorded. The power and the number of pulses required to induce the control thrombus was used to induce the experimental thrombus. The control and experimental thrombi constituting a pair were compared for statistical analysis. The total fluorescence intensity of the thrombi before and after the infusion of pyridazinone compound was recorded.
Images from a representative experiment of the recruitment of fluorescently-labeled […] platelets into a growing thrombus over time is shown in FIG. 9A.

A further assay deals with platelets. As to the kind of experiment: Agonist-induced platelet granule secretion / activation (P-selectin expression by flow cytometry; ADP/ATP release). Type of assay: cell-based, human. As to the method:
In order to monitor ATP release, a cocktail of 100 μM SFLLR (synthesized using solid phase Fmoc chemistry on an Applied Biosystems model 430A peptide synthesizer) and 3 mg/ml of luciferin/luciferase (Sigma, St. Louis, Mo.) in a volume of 10 μl is added to 20 μl of PRP. Samples are immediately analyzed for luminescence. Activated platelets supply the ATP necessary for luminescence of the luciferin/luciferase assay. Assays can be performed at high throughput through use of a microtiter plate system, e.g., 384-well plates and a Multidrop 384 (Thermo Labsystems, Helsinki), read with a high density imaging system, e.g., the Tundra system (Imaging Research, St. Catherine's, Ontario).
In order to assay platelet activation by cell surface marker expression, fresh PRP is isolated from donors who have not ingested aspirin for two weeks prior to donation. PRP (40 μl) is incubated with known or suspected inhibitor in DMSO or DMSO alone for 15 min. The sample is then incubated with the indicated agonist (e.g., SFLLR) for 10 min. Following incubation of the sample with the indicated agonist, 10 μl of reaction mixture is transferred to 5 μl of phycoerythrin (PE)-conjugated AC 1.2 anti-P-selectin antibody (for assessment of P-selectin surface expression) or fluorescein isothiocyanate (FITC)-conjugated PAC-1 antibody (for assessment of GPIIbIIIa activation). PBS (500 μl) is added to the sample after a 20 min incubation and the platelets are analyzed immediately by flow cytometry. Flow cytometry can be performed using, for example, a Becton-Dickinson FACSCalibur flow cytometer or its equivalent. Fluorescent channels are set at logarithmic gain. Ten thousand particles are acquired for each sample. A 530/30 band pass filter is used for FL-1 fluorescence. A 585/42 band pass filter is used for FL-2 fluorescence. FITC is measured in the FL-1 channel and PE is measured in the FL-2 channel. Data are analyzed using, for example, CellQuest software on a Macintosh PowerPC, or their equivalents.
Compounds were tested for the ability to inhibit agonist-induced ADP/ATP release from platelet dense granules using a luciferin-luciferase reporter system. In this assay, compounds were incubated with platelet-rich plasma (PRP) for 30 min. A cocktail of the platelet agonist and luciferin-luciferase was then added to the wells. Plates were immediately analyzed using a Tundra high density luminescence imager. […] As a control, compounds were also screened in a platelet-free assay for the ability to inhibit luciferin-luciferase upon exposure to ATP.
Each of the compounds was tested for inhibition of platelet activation in response to the agonists SFLLR (a thrombin mimic), U46619 (a thromboxane A2 mimic), ADP and the phorbol ester PMA.
Compounds were also tested by flow cytometry for the inhibition of SFLLR-induced GPIIbIIIa activation and P-selectin expression. In these experiments, freshly obtained PRP was prepared from healthy volunteers who had not ingested aspirin for two weeks prior to donation. Forty μl of PRP was incubated with inhibitor in DMSO or DMSO alone for 15 min. The sample was then incubated with the indicated agonist for 10 min. Following incubation of the sample with the indicated agonist, 10 μl of reaction mixture was transferred to 5 μl of PE-conjugated AC1.2 anti-P-selectin antibody (for assessment of P-selectin surface expression) or FITC-conjugated PAC-1 antibody (for assessment of GPIIbIIIa activation). PBS (500 μl) was added to the sample after a 20 min incubation and the platelets were analyzed immediately by flow cytometry. Flow cytometry was performed using a Becton-Dickinson FACSCalibur flow cytometer. Fluorescent channels were set at logarithmic gain. Ten thousand particles were acquired for each sample. A 530/30 band pass filter was used for FL-1 fluorescence. A 585/42 band pass filter was used for FL-2 fluorescence. FITC was measured in the FL-1 channel and PE was measured in the FL-2 channel.
A general note: In flow cytometry, cells or beads pass a laser one at a time.

The target of assay [2] is platelet cGMP-inhibited phosphodiesterase (Homo sapiens, UniProt Q14432). Particulars: Omburo et al., 1995; cited from earlier work.
For assay [3] the following is noted: patients suffering intermittent claudication; cited from earlier work.

Like-named read-outs stand apart in the source and are kept apart here.

Chain of platelet cGMP-inhibited phosphodiesterase (Q14432 whole entry): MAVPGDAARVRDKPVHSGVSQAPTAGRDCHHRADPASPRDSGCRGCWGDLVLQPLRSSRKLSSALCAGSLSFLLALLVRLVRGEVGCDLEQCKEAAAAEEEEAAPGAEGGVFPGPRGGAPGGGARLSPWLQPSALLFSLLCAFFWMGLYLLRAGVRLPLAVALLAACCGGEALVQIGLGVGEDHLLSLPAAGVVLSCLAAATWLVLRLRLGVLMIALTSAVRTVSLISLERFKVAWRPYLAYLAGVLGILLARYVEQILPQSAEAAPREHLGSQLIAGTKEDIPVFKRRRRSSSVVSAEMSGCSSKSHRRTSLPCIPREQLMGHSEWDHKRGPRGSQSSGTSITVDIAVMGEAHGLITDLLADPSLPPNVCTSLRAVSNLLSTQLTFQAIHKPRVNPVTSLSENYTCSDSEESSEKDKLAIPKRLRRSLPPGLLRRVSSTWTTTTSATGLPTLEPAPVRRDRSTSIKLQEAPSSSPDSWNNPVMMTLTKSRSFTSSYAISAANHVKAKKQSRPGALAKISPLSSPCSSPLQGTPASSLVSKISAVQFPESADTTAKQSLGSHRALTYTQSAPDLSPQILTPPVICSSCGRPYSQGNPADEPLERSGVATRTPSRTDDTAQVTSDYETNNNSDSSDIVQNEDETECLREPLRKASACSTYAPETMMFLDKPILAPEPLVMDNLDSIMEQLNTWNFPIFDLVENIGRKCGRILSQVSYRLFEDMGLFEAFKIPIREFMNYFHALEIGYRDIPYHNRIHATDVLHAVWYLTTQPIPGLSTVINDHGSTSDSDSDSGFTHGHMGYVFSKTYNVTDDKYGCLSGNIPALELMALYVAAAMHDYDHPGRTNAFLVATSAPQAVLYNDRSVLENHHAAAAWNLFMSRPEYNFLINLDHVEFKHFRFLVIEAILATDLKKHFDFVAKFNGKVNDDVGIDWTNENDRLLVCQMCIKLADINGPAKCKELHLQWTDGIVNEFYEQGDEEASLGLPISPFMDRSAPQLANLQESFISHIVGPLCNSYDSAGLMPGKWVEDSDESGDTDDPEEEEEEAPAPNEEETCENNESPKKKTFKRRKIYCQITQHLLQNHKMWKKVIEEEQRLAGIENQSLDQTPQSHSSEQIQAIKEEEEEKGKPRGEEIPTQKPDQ

As to “9-methylene-4-(alkyl)-2,3,4,9-tetrahydro-1H-cyclopenta(b)quinoline”, the “Inhibition of thrombosis following laser-induced injury” value in assay [1] is listed as “greater than 80%”. For the same compound, in the assay with mouse platelets, the “Activation of mouse platelets by several platelet agonists” value is “inhibits”. In addition, the IC50 was found to be 650 µM in the assay with platelets (agonist ADP, read-out: IC50s of inhibition of platelet granule secretion induced with ADP); 300 µM in the assay on platelets (agonist PMA, read-out: IC50s of inhibition of platelet granule secretion induced with PMA); 5 µM with platelets (agonist SFLLR, read-out: IC50s of inhibition of platelet granule secretion induced with SFLLR); 400 µM with platelets (agonist U-46619, read-out: IC50s of inhibition of platelet granule secretion induced with U-46619).
For the compound `c1cnc2c(c1)ccc1cccnc12` [[1,10]phenanthroline], in assay [2], the IC50 is roughly 2000 µM.
Take `O=C1CCc2cc(OCCCCc3nnnn3C3CCCCC3)ccc2N1` [cilostazol]: the “Increase of distance of pain free walking” value in assay [3] is “up to 59%”.
